Data from PubChem BioAssay AID330 (DTP/NCI, 2004).
“And” between values parts separate entries of the source, which are not always exact repeats. Equal entries are not always repeated. Inconclusive results and toxic doses are left out. How the source made its calls: active means survival T/C of 150% or more; inactive means T/C below 125% in these data.

System: P388 leukemia ip, CD2F1 mice, survival T/C
Experiment: NCI In Vivo Anticancer Drug Screen. Data for tumor model P388 Leukemia (intraperitoneal) in CD2F1 (CDF1) mice
Details: endpoint: median survival time, higher = longer survival
Method in brief: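 Mice carrying the transplanted tumor received test compound or vehicle. Survival was recorded in each group, and the value is the treated-group measurement divided by that of the vehicle-treated control group.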

[1] = dose: 50.0 mg/kg/injection, schedule: Q01DX009 (ip), vehicle: saline with Tween-80
[2] = dose: 100.0 mg/kg/injection, schedule: Q01DX009 (ip), vehicle: saline with Tween-80
[3] = dose: 200.0 mg/kg/injection, schedule: Q01DX009 (ip), vehicle: saline with Tween-80
[4] = dose: 50.0 mg/kg/injection, schedule: Q01DX005 (ip), vehicle: saline with Tween-80
[5] = dose: 100.0 mg/kg/injection, schedule: Q01DX005 (ip), vehicle: saline with Tween-80
[6] = dose: 200.0 mg/kg/injection, schedule: Q01DX005 (ip), vehicle: saline with Tween-80
[7] = dose: 15.0 mg/kg/injection, schedule: Q01DX005 (ip), vehicle: saline with Tween-80
[8] = dose: 30.0 mg/kg/injection, schedule: Q01DX005 (ip), vehicle: saline with Tween-80
[9] = dose: 60.0 mg/kg/injection, schedule: Q01DX005 (ip), vehicle: saline with Tween-80
[10] = dose: 120.0 mg/kg/injection, schedule: Q01DX005 (ip), vehicle: saline with Tween-80
[11] = dose: 50.0 mg/kg/injection, schedule: Q01DX005 (ip), vehicle: Klucel (hydroxypropylcellulose) (HPC)
[12] = dose: 100.0 mg/kg/injection, schedule: Q01DX005 (ip), vehicle: Klucel (hydroxypropylcellulose) (HPC)
[13] = dose: 200.0 mg/kg/injection, schedule: Q01DX005 (ip), vehicle: Klucel (hydroxypropylcellulose) (HPC)
[14] = dose: 60.0 mg/kg/injection, schedule: Q01DX005 (ip), vehicle: Klucel (hydroxypropylcellulose) (HPC)
[15] = dose: 12.5 mg/kg/injection, schedule: Q01DX009 (ip), vehicle: Klucel (hydroxypropylcellulose) (HPC)
[16] = dose: 25.0 mg/kg/injection, schedule: Q01DX009 (ip), vehicle: Klucel (hydroxypropylcellulose) (HPC)
[17] = dose: 50.0 mg/kg/injection, schedule: Q01DX009 (ip), vehicle: Klucel (hydroxypropylcellulose) (HPC)
[18] = dose: 6.25 mg/kg/injection, schedule: Q01DX009 (ip), vehicle: saline
[19] = dose: 12.5 mg/kg/injection, schedule: Q01DX009 (ip), vehicle: saline
[20] = dose: 240.0 mg/kg/injection, schedule: Q01DX005 (ip), vehicle: saline with Tween-80

Measured: T/C

O=C1SC(c2ccccc2)=S=C1c1ccccc1
inactive: [1] 104 % of control | [2] 104 % of control | [3] 124 % of control

Cc1ccc(NC(=O)CCC(=O)C(C)C(=O)c2ccccc2)c(C)c1 (configuration not stated)
inactive: [4] 99 % of control | [5] 97 % of control | [6] 97 % of control

CCCCCCCCCCCCCCCCCCCC(O)CCCCCCCCC (configuration not stated)
inactive: [7] 102 % of control | [8] 94 % of control | [9] 87 % of control | [10] 86 % of control

CCCn1c(CC)nc2c(cnn2C)c1=O
inactive: [11] 101 % of control | [12] 101 % of control | [13] 101 % of control

Nc1cccc(C(=O)c2ccc(N)c(N)c2)c1
inactive: [9] 90 % of control | [10] 92 % of control

CC(=O)Oc1cc2oc([O-])c[n+]2c2ccccc12
inactive: dose: 50.0 mg/kg/injection, schedule: Q01DX001 (ip), vehicle: saline with Tween-80 106 % of control | dose: 60.0 mg/kg/injection, schedule: Q01DX005 (ip), vehicle: Klucel + Tween-80 124 % of control | dose: 100.0 mg/kg/injection, schedule: Q01DX001 (ip), vehicle: saline with Tween-80 113 % of control and 124 % of control | dose: 200.0 mg/kg/injection, schedule: Q01DX001 (ip), vehicle: saline with Tween-80 106 % of control and 121 % of control

O=C1OC2C=CC=CN2C(=O)C1Cc1ccccc1 (configuration not stated)
inactive: [14] 105 % of control | dose: 120.0 mg/kg/injection, schedule: Q01DX005 (ip), vehicle: Klucel (hydroxypropylcellulose) (HPC) 102 % of control | dose: 240.0 mg/kg/injection, schedule: Q01DX005 (ip), vehicle: Klucel (hydroxypropylcellulose) (HPC) 100 % of control

Cl/N=C(\Nc1ccccc1)c1ccccn1
inactive: [1] 105 % of control | [2] 96 % of control

CC(C)CCC(NS(=O)(=O)c1cc(I)c(N)c(I)c1)C(=O)O (configuration not stated)
inactive: [4] 99 % of control | [5] 96 % of control | [6] 103 % of control

COC1C2CC3C4(CCC5C6(C)CCCC53C(C14)N(C)C6)CC21CCC23C4C=C5C6=C(CCC5(CC42)C3O1)C1(C)CC(C6)CN(C)C1 (configuration not stated)
inactive: [15] 91 % of control | [16] 94 % of control | [17] 98 % of control

N#CSCc1ccccc1
inactive: dose: 3.13 mg/kg/injection, schedule: Q01DX009 (ip), vehicle: saline 100 % of control | [18] 105 % of control | [19] 104 % of control

COc1ccc(CCN2CC(=O)N3CSCC3C2=O)cc1OC (configuration not stated)
inactive: [9] 100 % of control | [10] 95 % of control | [20] 95 % of control

O=C(CCc1n[nH]c(=S)o1)Nc1ccccc1
inactive: [4] 102 % of control | [5] 95 % of control | [6] 96 % of control

O=C1C(=Cc2cccnc2)C(=O)c2ccccc21
inactive: [9] 106 % of control | [10] 111 % of control

CS/C(=N\N=C(/C)c1ccccn1)N/N=C(\SC)N(C)c1ccccc1
inactive: [4] 108 % of control | [5] 104 % of control | [6] 110 % of control

ClCC1CCN(Cc2ccccc2)CC1
inactive: dose: 100.0 mg/kg/injection, schedule: Q04DX003 (ip), vehicle: saline with Tween-80 97 % of control | dose: 200.0 mg/kg/injection, schedule: Q04DX003 (ip), vehicle: saline with Tween-80 100 % of control

CC1CCC(c2ccccc2)(c2ccccc2)C1=O (configuration not stated)
inactive: dose: 100.0 mg/kg/injection, schedule: Q01DX001 (ip), vehicle: Klucel (hydroxypropylcellulose) (HPC) 96 % of control | dose: 200.0 mg/kg/injection, schedule: Q01DX001 (ip), vehicle: Klucel (hydroxypropylcellulose) (HPC) 100 % of control | dose: 400.0 mg/kg/injection, schedule: Q01DX001 (ip), vehicle: Klucel (hydroxypropylcellulose) (HPC) 96 % of control

CC(=O)/C(=C(\c1ccccc1)N1CCOCC1)N1CCOCC1
inactive: [11] 99 % of control | [12] 100 % of control | [13] 107 % of control

NC/C(=N\Nc1ccc([N+](=O)[O-])cc1[N+](=O)[O-])c1ccccc1
inactive: dose: 100.0 mg/kg/injection, schedule: Q04DX003 (ip), vehicle: saline 100 % of control | dose: 200.0 mg/kg/injection, schedule: Q04DX003 (ip), vehicle: saline 113 % of control | dose: 400.0 mg/kg/injection, schedule: Q04DX003 (ip), vehicle: saline 95 % of control

CNC(=S)NNc1nc(N(C)C)nc(N(C)C)n1
inactive: dose: 100.0 mg/kg/injection, schedule: Q04DX002 (ip), vehicle: saline with Tween-80 98 % of control | dose: 200.0 mg/kg/injection, schedule: Q04DX002 (ip), vehicle: saline with Tween-80 92 % of control | dose: 400.0 mg/kg/injection, schedule: Q04DX002 (ip), vehicle: saline with Tween-80 93 % of control

COC1=Cc2c(oc3c(C(C)(C)C)cc(OC)cc23)OC(C(C)(C)C)=C1
inactive: dose: 50.0 mg/kg/injection, schedule: Q01DX009 (ip), vehicle: saline 104 % of control | dose: 100.0 mg/kg/injection, schedule: Q01DX009 (ip), vehicle: saline 100 % of control | dose: 200.0 mg/kg/injection, schedule: Q01DX009 (ip), vehicle: saline 100 % of control

Cc1c2c(c(O)c3sccc13)C(C)(C)OC2=O
inactive: [4] 101 % of control | [5] 99 % of control | [6] 97 % of control

CC(C)COCSCC(NC(=O)CNC(=O)C(Cc1ccccc1)NC(=O)CNC(=O)C(CSC(c1ccccc1)(c1ccccc1)c1ccccc1)NC(c1ccccc1)(c1ccccc1)c1ccccc1)C(=O)O (configuration not stated)
inactive: dose: 15.0 mg/kg/injection, schedule: Q01DX005 (ip), vehicle: Klucel (hydroxypropylcellulose) (HPC) 97 % of control | dose: 30.0 mg/kg/injection, schedule: Q01DX005 (ip), vehicle: Klucel (hydroxypropylcellulose) (HPC) 96 % of control | [14] 88 % of control and 94 % of control

NC(CCC(N)C(=O)O)C(=O)O (configuration not stated)
inactive: [16] 97 % of control | [17] 93 % of control | dose: 100.0 mg/kg/injection, schedule: Q01DX009 (ip), vehicle: Klucel (hydroxypropylcellulose) (HPC) 87 % of control | dose: 200.0 mg/kg/injection, schedule: Q01DX009 (ip), vehicle: Klucel (hydroxypropylcellulose) (HPC) 86 % of control

COc1ccc(Cl)cc1NC(=O)c1ccco1
inactive: [9] 96 % of control | [10] 99 % of control | [20] 98 % of control

COc1cc(C(CC(C)=O)c2cc3c(cc2OC(C)=O)OCO3)cc(OC)c1OC (configuration not stated)
inactive: [8] 95 % of control | [9] 100 % of control and 93 % of control | [10] 120 % of control

O=C(O)C1=CC(c2ccccc2O)=NCCN1
inactive: [7] 97 % of control and 98 % of control | [8] 102 % of control and 105 % of control | [9] 114 % of control and 97 % of control | [10] 103 % of control and 107 % of control

c1ccc(N=Nc2ccc3ns[s+]c3c2)cc1
inactive: [9] 92 % of control | [10] 95 % of control | [20] 103 % of control

COC(=O)C1=C(C(=O)OC)[C](C(=O)c2ccccc2)([Sn]([CH3])([CH3])[CH3])N=N1 (configuration not stated)
inactive: dose: 0.78 mg/kg/injection, schedule: Q01DX009 (ip), vehicle: saline 92 % of control | dose: 1.56 mg/kg/injection, schedule: Q01DX009 (ip), vehicle: saline 89 % of control | dose: 3.12 mg/kg/injection, schedule: Q01DX009 (ip), vehicle: saline 93 % of control

COc1ccc(C2=C(Cl)C(=O)N(c3ccccc3Cl)C(=O)C2(Cl)Cl)cc1
inactive: dose: 100.0 mg/kg/injection, schedule: Q04DX002 (ip), vehicle: Klucel (hydroxypropylcellulose) (HPC) 105 % of control | dose: 200.0 mg/kg/injection, schedule: Q04DX002 (ip), vehicle: Klucel (hydroxypropylcellulose) (HPC) 112 % of control | dose: 400.0 mg/kg/injection, schedule: Q04DX002 (ip), vehicle: Klucel (hydroxypropylcellulose) (HPC) 113 % of control

C/C(N)=C\C(=S)Nc1ccccc1
inactive: [15] 100 % of control | [16] 106 % of control | [17] 104 % of control

C1=Nc2ccccc2N=Cc2ccccc2NCCNc2ccccc21
inactive: [18] 98 % of control | [19] 101 % of control | dose: 25.0 mg/kg/injection, schedule: Q01DX009 (ip), vehicle: saline 92 % of control

CCC(=O)C(=O)c1ccc(O)c(C)c1O
inactive: [1] 100 % of control | [2] 96 % of control | [3] 90 % of control

CN1CCN(CCCNN)CC1
inactive: dose: 50.0 mg/kg/injection, schedule: Q01DX005 (ip), vehicle: saline 93 % of control | dose: 100.0 mg/kg/injection, schedule: Q01DX005 (ip), vehicle: saline 101 % of control | dose: 200.0 mg/kg/injection, schedule: Q01DX005 (ip), vehicle: saline 101 % of control
